Laboratory results reported in ChEMBL document CHEMBL3272256, “Antimalarials. 11. 2-Vinylogs of substituted 2-aryl-4-quinoline amino alcohols” (J Med Chem, 1976).
Active and inactive are the calls of the source. The calls are words filed in the database; no cut-off is given here.

How the values were obtained:
Format in all cases: functional, organism-based
Plasmodium berghei [1] = assay: Antimalarial activity against Plasmodium berghei infected in mouse assessed as complete cure at 160 mg/kg; design: dose 160 mg/kg
Plasmodium berghei [2] = assay: Antimalarial activity against Plasmodium berghei infected in mouse at 20 mg/kg; design: dose 20 mg/kg
Plasmodium berghei [3] = assay: Antimalarial activity against Plasmodium berghei infected in mouse assessed as complete cure at 40 mg/kg; design: dose 40 mg/kg
Plasmodium berghei [4] = assay: Antimalarial activity against Plasmodium berghei infected in mouse at 10 mg/kg; design: dose 10 mg/kg

Structure (SMILES): CCCCN(CCCC)CC(O)c1cc(/C=C/c2ccc(Cl)cc2)nc2c(C)cc(C)cc12 (stereo not given)
- Activity (Plasmodium berghei [1]): Active
- Activity (Plasmodium berghei [2]): Active

Structure (SMILES): CCCCN(CCCC)CC(O)c1c2c(nc3c(C)cc(C)cc13)/C(=C/c1ccc(Cl)cc1)CC2 (stereo not given)
- Activity (Plasmodium berghei [3]): Active
- Activity (Plasmodium berghei [4]): Active

Structure (SMILES): Cc1cc(C)c2nc3c(c([C@H]4OC(c5ccc(Cl)cc5)N5CCCC[C@H]45)c2c1)CCC3 (mixture of isomers)
- Activity (Plasmodium berghei [3]): inactive
